Results: ChEMBL document CHEMBL1201862, “PubChem BioAssay data set” (2004)
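Following 48 hours of exposure in 96-well plates, responses at five concentrations were used to interpolate endpoints linearly. At the GI50, growth is halved.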 Active and inactive are the calls of the source. Cut-off read from the data, not from the text of the source: active = GI50 up to about 1.1 µM and inactive = higher.

How the values were obtained:
Assay in all cases: NCI-60 cell line screen, 48 h
[1] = system: RPMI-8226
[2] = system: HL-60
[3] = system: NCI-H460
[4] = system: PC-3
[5] = system: 786-0
[6] = system: A498
[7] = system: HCT-15
[8] = system: DU-145
[9] = system: COLO 205
[10] = system: SNB-19
[11] = system: CCRF-CEM
[12] = system: LOX IMVI
[13] = system: OVCAR-3
[14] = system: SK-MEL-28
[15] = system: T47D
[16] = system: ACHN
[17] = system: UACC-62
[18] = system: SK-MEL-2
[19] = system: K562
[20] = system: SNB-75

Compound	GI50 [1]	GI50 [2]	GI50 [3]	GI50 [4]	GI50 [5]	GI50 [6]	GI50 [7] [µM]	GI50 [8]	GI50 [9]	GI50 [10]	GI50 [11]	GI50 [12]	GI50 [13]	GI50 [14]	GI50 [15]	GI50 [16]	GI50 [17]	GI50 [18]	GI50 [19]	GI50 [20]
O=[N+]([O-])c1cccc([N+](=O)[O-])c1S(=O)(=O)c1ccccc1	1.46 µM (inactive)	2.71 µM (inactive)	21.7 µM (inactive)	11.9 µM (inactive)	2.09 µM (inactive)	18.8 µM (inactive)	1.92	6.05 µM (inactive)	6.18 µM (inactive)	18.3 µM (inactive)	< 0.01 µM (active)	1.84 µM (inactive)	2.49 µM (inactive)	4.16 µM (inactive)	2.13 µM (inactive)	2.17 µM (inactive)	–	–	–	–
COc1ccc([C@@]23Oc4cc(OC)cc(OC)c4[C@]2(O)[C@H](O)[C@H](C(N)=O)[C@H]3c2ccccc2)cc1 [DIDESMETHYLROCAGLAMIDE]	< 0.01 µM (active)	< 0.0192 µM (active)	< 0.01 µM (active)	< 0.01 µM (active)	< 0.01 µM (active)	< 0.01 µM (active)	< 0.0142	< 0.01 µM (active)	< 0.01 µM (active)	< 0.01 µM (active)	< 0.01 µM (active)	< 0.01 µM (active)	< 0.01 µM (active)	< 0.01 µM (active)	< 0.01 µM (active)	< 0.01 µM (active)	< 0.01 µM (active)	< 0.0106 µM (active)	< 0.01 µM (active)	–
COC(=O)C12OC3CO[Si](C(C)C)(C(C)C)O[Si](C(C)C)(C(C)C)OC3C1Oc1nc(=O)ccn12 (stereo not given)	13.7 µM (inactive)	23.4 µM (inactive)	–	15.3 µM (inactive)	17.7 µM (inactive)	23.7 µM (inactive)	16.5	18.5 µM (inactive)	18.7 µM (inactive)	17.3 µM (inactive)	17.3 µM (inactive)	17.4 µM (inactive)	15.8 µM (inactive)	16.7 µM (inactive)	18.8 µM (inactive)	17.9 µM (inactive)	14.3 µM (inactive)	17.1 µM (inactive)	15.4 µM (inactive)	–
CCCCCCCc1c(Cl)nc(Cl)nc1Cl	2.84 µM (inactive)	2.45 µM (inactive)	12.8 µM (inactive)	8.28 µM (inactive)	3.56 µM (inactive)	20.1 µM (inactive)	3.66	14.3 µM (inactive)	5.25 µM (inactive)	11.2 µM (inactive)	0.494 µM (active)	1.45 µM (inactive)	6.35 µM (inactive)	7.11 µM (inactive)	12.2 µM (inactive)	8.61 µM (inactive)	5.82 µM (inactive)	–	2.06 µM (inactive)	14.6 µM (inactive)
Cc1ccc2c(c1)CC1(Cc3cccc(C)c3C1=O)C2=O (stereo not given)	> 100 µM (inactive)	38.3 µM (inactive)	69.7 µM (inactive)	> 100 µM (inactive)	> 100 µM (inactive)	> 100 µM (inactive)	> 100	> 100 µM (inactive)	85.3 µM (inactive)	–	70.1 µM (inactive)	> 10 µM (inactive)	> 100 µM (inactive)	> 100 µM (inactive)	> 10 µM (inactive)	> 100 µM (inactive)	48.4 µM (inactive)	–	39.4 µM (inactive)	> 100 µM (inactive)
Nc1ccc2nc3ccc(=O)cc-3n(-c3ccccc3)c2c1	39.5 µM (inactive)	59 µM (inactive)	> 100 µM (inactive)	91.4 µM (inactive)	35.8 µM (inactive)	32.8 µM (inactive)	> 100	> 100 µM (inactive)	41 µM (inactive)	> 100 µM (inactive)	62.8 µM (inactive)	–	31.8 µM (inactive)	> 100 µM (inactive)	> 100 µM (inactive)	> 100 µM (inactive)	> 100 µM (inactive)	> 100 µM (inactive)	> 100 µM (inactive)	28.2 µM (inactive)
CSc1nnc(SC)nn1	13.3 µM (inactive)	3.65 µM (inactive)	18.2 µM (inactive)	18.5 µM (inactive)	13.8 µM (inactive)	> 100 µM (inactive)	19.2	20.4 µM (inactive)	18.7 µM (inactive)	20.7 µM (inactive)	1.81 µM (inactive)	19.6 µM (inactive)	16.2 µM (inactive)	–	2.76 µM (inactive)	16.8 µM (inactive)	18.2 µM (inactive)	–	8.04 µM (inactive)	17.4 µM (inactive)
C/C(=C/CNc1ncnc2c1ncn2CCC#N)CO	> 100 µM (inactive)	> 100 µM (inactive)	> 100 µM (inactive)	> 100 µM (inactive)	> 100 µM (inactive)	> 100 µM (inactive)	–	> 100 µM (inactive)	> 100 µM (inactive)	> 100 µM (inactive)	> 100 µM (inactive)	> 100 µM (inactive)	> 100 µM (inactive)	> 100 µM (inactive)	> 100 µM (inactive)	> 100 µM (inactive)	> 100 µM (inactive)	–	> 100 µM (inactive)	> 100 µM (inactive)
Cc1cc(=O)[nH]c(-n2[nH]c3c(c2=O)CCCC3)n1	74.1 µM (inactive)	50.5 µM (inactive)	25.9 µM (inactive)	68.1 µM (inactive)	57.7 µM (inactive)	> 100 µM (inactive)	31.3	> 100 µM (inactive)	88.9 µM (inactive)	> 100 µM (inactive)	34.5 µM (inactive)	–	–	45.7 µM (inactive)	> 100 µM (inactive)	49.4 µM (inactive)	39.2 µM (inactive)	52.1 µM (inactive)	52.2 µM (inactive)	< 0.01 µM (active)
C=CCSC1=N/C(=C\c2ccc(C)cc2)C(=O)N1CC=C	13.9 µM (inactive)	12.2 µM (inactive)	34.3 µM (inactive)	22.2 µM (inactive)	18.3 µM (inactive)	13.6 µM (inactive)	25.3	20.7 µM (inactive)	20.6 µM (inactive)	32.4 µM (inactive)	–	26.5 µM (inactive)	57.5 µM (inactive)	45.7 µM (inactive)	25.9 µM (inactive)	36.1 µM (inactive)	32.3 µM (inactive)	25.8 µM (inactive)	10.4 µM (inactive)	–
C1=N/CCNCCNCC/N=C/c2ccccc2OCc2cccc(n2)COc2ccccc2/1	28.4 µM (inactive)	28 µM (inactive)	34.4 µM (inactive)	34 µM (inactive)	64.6 µM (inactive)	> 100 µM (inactive)	45.1	56.9 µM (inactive)	> 100 µM (inactive)	52.5 µM (inactive)	16.2 µM (inactive)	–	30.1 µM (inactive)	> 100 µM (inactive)	57.4 µM (inactive)	28.6 µM (inactive)	79.1 µM (inactive)	> 100 µM (inactive)	24.7 µM (inactive)	67.9 µM (inactive)
C=C[C@@]1(C)CC2CC[C@]3(C)C(C)=CC(=O)CC3[C@]2(C)CC1O (stereo not given in full)	> 100 µM (inactive)	32.7 µM (inactive)	> 100 µM (inactive)	> 100 µM (inactive)	> 100 µM (inactive)	> 100 µM (inactive)	> 100	> 100 µM (inactive)	94.4 µM (inactive)	> 100 µM (inactive)	38.3 µM (inactive)	> 100 µM (inactive)	67.3 µM (inactive)	> 100 µM (inactive)	> 100 µM (inactive)	> 100 µM (inactive)	> 100 µM (inactive)	> 100 µM (inactive)	38 µM (inactive)	–
CSC1=C(C#N)C(=O)N(c2ccc(C)cc2)C(=O)C1C#N (stereo not given)	> 100 µM (inactive)	> 100 µM (inactive)	> 100 µM (inactive)	> 100 µM (inactive)	> 100 µM (inactive)	82.4 µM (inactive)	> 100	> 100 µM (inactive)	> 100 µM (inactive)	> 100 µM (inactive)	> 100 µM (inactive)	> 100 µM (inactive)	> 100 µM (inactive)	> 100 µM (inactive)	41.2 µM (inactive)	> 100 µM (inactive)	> 100 µM (inactive)	> 100 µM (inactive)	> 100 µM (inactive)	–
OC[C@]1(n2nc3ccccc3n2)OC[C@@H]1c1ccccc1	26.9 µM (inactive)	31.4 µM (inactive)	76.2 µM (inactive)	70 µM (inactive)	34.8 µM (inactive)	60.5 µM (inactive)	42.1	27.5 µM (inactive)	55.5 µM (inactive)	> 100 µM (inactive)	36.1 µM (inactive)	42.5 µM (inactive)	21.7 µM (inactive)	28.2 µM (inactive)	36 µM (inactive)	36.6 µM (inactive)	43.3 µM (inactive)	34 µM (inactive)	56.9 µM (inactive)	–
Cc1cc(C)n(CN(Cn2nc(C)cc2C)c2ccc(N(Cn3nc(C)cc3C)Cn3nc(C)cc3C)cc2)n1	13.4 µM (inactive)	30.5 µM (inactive)	24.6 µM (inactive)	23.7 µM (inactive)	19.3 µM (inactive)	22.2 µM (inactive)	21.5	25.9 µM (inactive)	17.7 µM (inactive)	24 µM (inactive)	14.4 µM (inactive)	–	25.5 µM (inactive)	18.7 µM (inactive)	23.8 µM (inactive)	17.3 µM (inactive)	24.2 µM (inactive)	23.1 µM (inactive)	18.7 µM (inactive)	–
